These results are taken from article PMC4182326, “Synthesis and Characterization of Novel 2-Amino-Chromene-Nitriles that Target Bcl-2 in Acute Myeloid Leukemia Cell Lines” (PLoS ONE, 2014).

Each structure is given as a SMILES string.

Assay [1] concerns the target T1, Bcl-2 (Homo sapiens, UniProt P10415).
T1 construct: gene BCL2
The assay is described as follows: Zymed Bcl-2 ELISA; inhibition of Bcl-2 binding to its antibody. In general terms: An ELISA detects its analyte on a solid surface through an enzyme-linked reagent.

The target of assay [2] is T1, Bcl-2. In words: Zymed Bcl-2 ELISA; % inhibition of Bcl-2 binding to its antibody at […].

T1 sequence (P10415 whole entry): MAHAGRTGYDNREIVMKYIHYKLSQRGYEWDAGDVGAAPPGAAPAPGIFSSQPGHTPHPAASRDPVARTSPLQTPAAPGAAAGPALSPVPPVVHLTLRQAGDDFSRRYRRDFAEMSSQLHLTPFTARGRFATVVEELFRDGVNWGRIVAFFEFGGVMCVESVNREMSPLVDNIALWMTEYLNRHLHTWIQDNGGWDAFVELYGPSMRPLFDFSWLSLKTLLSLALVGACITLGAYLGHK

As for `N#CC1=C(N)Oc2cc3ccccc3cc2C1c1c(Cl)cccc1Cl` (stereo not shown) [4g, 2-amino-4-(2,6-dichlorophenyl)-4H-benzo[g]chromene-3-carbonitrile], on Bcl-2 [1], the IC50 (commonly the midpoint of a concentration-inhibition curve) was 17.8 µM.
For the compound `N#CC1=C(N)Oc2cc3ccccc3cc2C1c1cccc([N+](=O)[O-])c1` (stereo not shown) [4a, 2-amino-4-(3-nitrophenyl)-4H-benzo[g]chromene-3-carbonitrile], the inhibition (in general, the percentage by which the read-out fell short of the control) at 30 µM at Bcl-2 [2] was determined as 37.8%.
Same read-out and setting: the same measure for `N#CC1=C(N)Oc2cc3ccccc3cc2C1c1ccccc1[N+](=O)[O-]` (stereo not shown) [4f, 2-amino-4-(2-nitrophenyl)-4H-benzo[g]chromene-3-carbonitrile]: 61.9%; for `N#CC1=C(N)Oc2cc3ccccc3cc2C1c1ccc(F)cc1` (stereo not shown) [4h, 2-amino-4-(4-fluorophenyl)-4H-benzo[g]chromene-3-carbonitrile]: 53%.
